From patent US9266835B2, “Quinoline derivatives useful as CB-1 inverse agonists” (JANSSEN PHARMACEUTICA NV, priority 2014, dated 2016)
Read-outs that look alike come from different tables or passages of the source.

Legend:
[1] = Chronic DIO Mouse, second study: plasma and brain concentrations; type: in vivo; conditions: DIO mice; for concentration at 2 h: male, mouse, oral
Description: Male 14-20-week old diet-induced obese mice were ordered from Taconic. Mice were started on a 60% fat diet (D12492, Research Diets, New Brunswick, N.J.) at 6 weeks of age. Mice were single-housed.
Test compounds were formulated in 10% PEG400 and 10% solutol. Test compounds were administered by oral gavage (5 ml kg^−1).
The test compound was formulated in 10% PEG400 and 10% solutol. […] At the end of the experiment, the mice were euthanized and blood and tissues were collected.
In a second study, Compound #44 was tested according to the procedure as described above, with results as listed in Tables BIO-5A through 5G, below.

[2] = target: Human CB1R (Cannabinoid receptor 1) (Homo sapiens (Human), UniProt P21554); assay: CB-1 in vitro cAMP assay (HTRF), inverse agonism; type: cell-based; conditions: mean where tested more than once
Human CB1R (Cannabinoid receptor 1), sequence (P21554 whole entry): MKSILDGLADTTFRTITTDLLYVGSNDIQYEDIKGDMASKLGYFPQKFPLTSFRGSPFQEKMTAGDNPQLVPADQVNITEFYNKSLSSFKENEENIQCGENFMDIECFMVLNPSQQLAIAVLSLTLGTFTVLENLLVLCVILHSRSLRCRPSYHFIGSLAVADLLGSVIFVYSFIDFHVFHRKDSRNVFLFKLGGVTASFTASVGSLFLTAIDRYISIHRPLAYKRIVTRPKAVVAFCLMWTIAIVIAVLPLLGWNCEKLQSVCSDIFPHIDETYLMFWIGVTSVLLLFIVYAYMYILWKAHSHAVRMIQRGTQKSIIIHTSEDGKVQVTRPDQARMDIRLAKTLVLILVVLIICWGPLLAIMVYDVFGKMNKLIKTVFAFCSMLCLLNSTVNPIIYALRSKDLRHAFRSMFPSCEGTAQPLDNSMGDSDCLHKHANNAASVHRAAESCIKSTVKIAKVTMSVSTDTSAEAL

Brain concentration (Std Dev) ([1]; 0.3 mg/kg, Day 2, 2 hours post dose): BLOQ* | Brain concentration (Std Dev) ([1]; 0.3 mg/kg, Day 23, 2 hours post dose): BLOQ** | Brain concentration (Std Dev) ([1]; 1 mg/kg, Day 2, 2 hours post dose): BLOQ* | Brain concentration (Std Dev) ([1]; 3 mg/kg, Day 2, 2 hours post dose): BLOQ* | concentration at 2 h ([1]; brain, 1 mg/kg, 1 mg/kg, Day 23, 2 hours post dose, read-out: Brain concentration (Std Dev)): 36.8 ng/g | concentration at 2 h ([1]; brain, 3 mg/kg, 3 mg/kg, Day 23, 2 hours post dose, read-out: Brain concentration (Std Dev)): 100 ng/g | concentration at 2 h ([1]; brain, 10 mg/kg, 10 mg/kg, Day 2, 2 hours post dose, read-out: Brain concentration (Std Dev)): 62.3 ng/g | concentration at 2 h ([1]; brain, 10 mg/kg, 10 mg/kg, Day 23, 2 hours post dose, read-out: Brain concentration (Std Dev)): 201 ng/g | concentration at 2 h ([1]; plasma, 0.3 mg/kg, 0.3 mg/kg, Day 2, 2 hours post dose, read-out: Plasma concentration (Std Dev)): 61.3 ng/mL | concentration at 2 h ([1]; plasma, 0.3 mg/kg, 0.3 mg/kg, Day 23, 2 hours post dose, read-out: Plasma concentration (Std Dev)): 192 ng/mL | concentration at 2 h ([1]; plasma, 1 mg/kg, 1 mg/kg, Day 2, 2 hours post dose, read-out: Plasma concentration (Std Dev)): 310 ng/mL | concentration at 2 h ([1]; plasma, 1 mg/kg, 1 mg/kg, Day 23, 2 hours post dose, read-out: Plasma concentration (Std Dev)): 515 ng/mL | concentration at 2 h ([1]; plasma, 3 mg/kg, 3 mg/kg, Day 2, 2 hours post dose, read-out: Plasma concentration (Std Dev)): 759 ng/mL | concentration at 2 h ([1]; plasma, 3 mg/kg, 3 mg/kg, Day 23, 2 hours post dose, read-out: Plasma concentration (Std Dev)): 1560 ng/mL | concentration at 2 h ([1]; plasma, 10 mg/kg, 10 mg/kg, Day 2, 2 hours post dose, read-out: Plasma concentration (Std Dev)): 2490 ng/mL | concentration at 2 h ([1]; plasma, 10 mg/kg, 10 mg/kg, Day 23, 2 hours post dose, read-out: Plasma concentration (Std Dev)): 5280 ng/mL | EC50 [2]: 8 nM
SMILES: O=c1cc(NC2CCN(S(=O)(=O)C(F)(F)F)CC2)c2cc(C(c3ccc(Cl)cc3)c3ccc(Cl)cc3)ccc2[nH]1 [Compound #44, 6-(bis(4-chlorophenyl)methyl)-4-(1-(trifluoromethylsulfonyl)piperidin-4-ylamino)quinolin-2(1H)-one]
